Reference: USRE49735E1 (BRISTOL-MYERS SQUIBB COMPANY, priority 2010, dated 2023)
Several values for one entry are separate records, joined by “and”; a condition that tells them apart may be missing. Equal entries are not always repeated.

Target: human mGluR5A (Homo sapiens, UniProt P41594)
Assay: mGluR5 FLIPR Assay
Format: cell-based
Settings: positive modulator activity; HEK293 (ZF) cells with human mGluR5A and rat GLAST; Ca++ response to ~EC10 glutamate

Sequence of human mGluR5A (P41594 21-1180 isoform P41594-2): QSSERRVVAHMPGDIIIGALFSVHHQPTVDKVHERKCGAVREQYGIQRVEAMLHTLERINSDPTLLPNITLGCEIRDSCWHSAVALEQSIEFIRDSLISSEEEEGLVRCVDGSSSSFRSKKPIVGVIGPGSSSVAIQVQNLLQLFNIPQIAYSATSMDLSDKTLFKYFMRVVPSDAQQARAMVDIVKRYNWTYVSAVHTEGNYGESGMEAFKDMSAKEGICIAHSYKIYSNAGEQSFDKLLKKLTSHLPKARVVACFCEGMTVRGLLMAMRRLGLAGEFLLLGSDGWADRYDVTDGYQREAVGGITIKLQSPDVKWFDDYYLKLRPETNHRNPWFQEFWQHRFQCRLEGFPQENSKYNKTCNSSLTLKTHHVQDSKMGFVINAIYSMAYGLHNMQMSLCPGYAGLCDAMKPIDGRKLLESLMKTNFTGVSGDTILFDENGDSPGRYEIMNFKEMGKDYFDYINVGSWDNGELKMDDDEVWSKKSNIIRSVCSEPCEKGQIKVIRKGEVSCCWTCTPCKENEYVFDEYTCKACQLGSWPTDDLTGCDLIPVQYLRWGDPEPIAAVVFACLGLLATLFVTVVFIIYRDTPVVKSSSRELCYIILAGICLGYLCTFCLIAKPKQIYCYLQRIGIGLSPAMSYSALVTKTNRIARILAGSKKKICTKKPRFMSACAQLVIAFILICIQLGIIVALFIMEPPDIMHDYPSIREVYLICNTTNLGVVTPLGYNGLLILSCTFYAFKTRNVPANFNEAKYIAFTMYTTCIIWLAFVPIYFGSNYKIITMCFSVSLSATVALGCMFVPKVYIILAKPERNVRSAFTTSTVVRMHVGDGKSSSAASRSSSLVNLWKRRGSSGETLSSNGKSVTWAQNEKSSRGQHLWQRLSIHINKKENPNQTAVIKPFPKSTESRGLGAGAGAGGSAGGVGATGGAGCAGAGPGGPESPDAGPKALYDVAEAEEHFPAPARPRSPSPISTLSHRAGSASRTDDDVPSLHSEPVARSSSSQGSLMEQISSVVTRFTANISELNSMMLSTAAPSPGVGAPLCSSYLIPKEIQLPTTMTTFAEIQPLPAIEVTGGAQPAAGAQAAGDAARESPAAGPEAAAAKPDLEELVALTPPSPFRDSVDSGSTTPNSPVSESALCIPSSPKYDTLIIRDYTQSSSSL

| Structure (SMILES) | EC50 |
| --- | --- |
| O=C1N[C@H](c2cc(C#Cc3cccnc3)cnc2F)[C@@H](c2ccc(Cl)cc2)O1 [Example 146, (4R,5R)-5-(4-Chlorophenyl)-4-(2-fluoro-5-(pyridin-3-ylethynyl)pyridin-3-yl)oxazolidin-2-on] | < 0.1 µM |
| COc1ncc(C#Cc2ccccc2)cc1[C@H]1NC(=O)O[C@@H]1c1cc(F)ccc1F [Example 303, (4R,5R)-5-(2,5-Difluorophenyl)-4-(2-methoxy-5-(phenylethynyl)pyridin-3-yl)oxazolidin-2-one] | > 1 µM |
| COc1cccc([C@H]2OC(=O)N[C@@H]2c2cccc(C#Cc3ccc(F)nc3)c2)c1 [Example 69] | < 0.1 µM |
| COc1cccc([C@H]2OC(=O)N[C@@H]2c2cccc(C#Cc3ccccc3)n2)c1 (single isomer, unassigned) [Example 5] | < 0.1 µM |
| COc1cccc([C@H]2OC(=O)N[C@@H]2c2cccc(C#Cc3ccc(F)cc3)c2)c1 [Example 131, (4R,5R)-4-(3-((4-fluorophenyl)ethynyl)phenyl)-5-(3-methoxyphenyl)oxazolidin-2-one] | < 0.1 µM |
| O=C1N[C@H](c2cccc(C#Cc3cccnc3)c2)[C@@H](c2ccncn2)O1 [Example 241] | > 1 µM |
| COc1cccc([C@@H]2OC(=O)N[C@H]2c2cccc(C#Cc3cc(F)cc(F)c3)c2)c1 [Example 124, (4S,5S)-4-(3-((3,5-difluorophenyl)ethynyl)phenyl)-5-(3-methoxyphenyl)oxazolidin-2-one] | > 1 µM |
| O=C1N[C@@H](c2cc(C#Cc3cccc(F)c3)ccn2)[C@H](c2ccc(F)cc2)O1 (single isomer, unassigned) [Example 356] | 0.1 to 1 µM |
| O=C1N[C@@H](c2cncc(C#Cc3ccccc3)c2)[C@H](c2ccc(F)cc2)O1 (single isomer, unassigned) [Example 40] | > 1 µM |
| O=C1N[C@H](c2cc(C#Cc3ccccc3)cnc2F)[C@@H](c2cc(F)ccc2F)O1 [Example 302] | < 0.1 µM |
| N#Cc1cccc(C#Cc2cncc([C@H]3NC(=O)O[C@@H]3c3ccc(F)cc3F)c2)c1 [Example 180] | 0.1 to 1 µM and 0.259 µM |
| O=C1N[C@@H](c2cccc(C#Cc3ccccc3)c2)[C@H](c2ccc(F)cc2)O1 [Example 115, (4S,5S)-5-(4-fluorophenyl)-4-(3-(phenylethynyl)phenyl)oxazolidin-2-one] | > 1 µM |
| O=C1N[C@@H](c2cc(C#Cc3ccccc3Cl)ccn2)[C@H](c2ccc(F)cc2)O1 (single isomer, unassigned) [Example 352] | > 1 µM |
| O=C1N[C@H](c2cncc(C#Cc3cccc(C(F)(F)F)c3)c2)[C@@H](c2cccc(F)c2)O1 [Example 402, (4R,5R)-5-(3-fluorophenyl)-4-(5((3-(trifluoromethyl)phenyl)ethynyl)pyridin-3-yl)oxazolidin-2-one] | > 3 µM |
| O=C1N[C@H](c2cccc(C#Cc3cnccn3)n2)[C@@H](c2ccc(F)cc2)O1 (single isomer, unassigned) [Example 368] | 0.1 to 1 µM |
| O=C1N[C@H](c2cncc(C#Cc3cccc(F)c3)c2)[C@@H](c2cccc(F)c2)O1 [Example 400, (4R,5R)-5-(3-fluorophenyl)-4-(5-((3-fluorophenyl)ethynyl)pyridin-3-yl)oxazolidin-2-one] | < 0.1 µM |
| O=C1N[C@H](c2nc(C#Cc3ccccc3)ccc2F)[C@@H](c2ccccc2)O1 (single isomer, unassigned) [Example 305] | > 1 µM |
| O=C1N[C@@H](c2cccc(C#Cc3ccccc3)c2)[C@H](c2cccnc2)O1 [Example 118, (4S,5S)-4-(3-(phenylethynyl)phenyl)-5-(pyridin-3-yl)oxazolidin-2-one] | > 1 µM |
| COc1cccc([C@H]2OC(=O)N[C@@H]2c2cccc(C#Cc3ccnc(C#N)c3)c2)c1 [Example 56, 4-((3-((4R,5R)-5-(3-Methoxyphenyl)-2-oxooxazolidin-4-yl)phenyl)ethynyl)nicolinonitrile] | > 1 µM |
| O=C1N[C@H](c2cc(C#Cc3ccc(C4CC4)nc3)cnc2F)[C@@H](c2ccc(F)cc2)O1 [Example 151, (4R,5R)-4-(5-((6-Cyclopropylpyridin-3-yl)ethynyl)-2-fluoropyridin-3-yl)-5-(4-fluorophenyl)oxazolidin-2-one] | > 1 µM |
| O=C1N[C@H](c2cncc(C#Cc3cccc(Cl)c3)c2)[C@@H](c2cc(F)ccc2F)O1 [Example 385, (4R,5R)-4-(5-((3-chlorophenyl)ethynyl)pyridin-3-yl)-5-(2,5-difluorophenyl)oxazolidin-2-one] | > 1 µM |
| COc1cccc([C@H]2OC(=O)N[C@@H]2c2cccc(C#Cc3ccc(Cl)cc3)c2)c1 [Example 263] | > 1 µM |
| O=C1N[C@H](c2cncc(C#Cc3ccc(Cl)c(Cl)c3)c2)[C@@H](c2cc(F)ccc2F)O1 [Example 383, (4R,5R)-4-(5-((3,4-dichlorophenyl)ethynyl)pyridin-3-y1)-5-(2,5-difluorophenyl)oxazolidin-2-one] | > 1 µM |
| O=C1N[C@@H](c2cccc(C#Cc3ccccc3)c2)[C@H](c2cccnc2)O1 (relative stereo) [Example 116, Trans-4-(3-(phenylethynyl)phenyl)-5-(pyridin-3-yl)oxazolidin-2-one] | < 0.1 µM |
| CC(C)(C)c1ccc(C#Cc2cncc([C@H]3NC(=O)O[C@@H]3c3cc(F)ccc3F)c2)cc1 [Example 384, (4R,5R)-4-(5-((4-tert-butylphenyl)ethynyl)pyridin-3-y1)-5-(2,5-difluorophenyl)oxazolidin-2-one] | > 1 µM |
| O=C1N[C@@H](c2cccc(C#Cc3ccc(F)cc3)n2)[C@H](c2ccccc2)O1 (single isomer, unassigned) [Example 17] | > 1 µM |

| Structure (SMILES) | EC50 |
| --- | --- |
| O=C1N[C@@H](c2cccc(C#Cc3ccnc(F)c3)n2)[C@H](c2ccc(F)cc2)O1 (single isomer, unassigned) [Example 373] | > 1 µM |
| Cn1nccc1[C@@H]1OC(=O)N[C@H]1c1cncc(C#Cc2ccccc2)c1 [Example 341, (4S,5R)-5-(1-methyl-1H-pyrazol-5-yl)-4-(5-(phenylethynyl)pyridin-3-yl)oxazolidin-2-one] | > 1 µM |
| O=C1N[C@@H](c2cncc(C#Cc3cncc(F)c3)c2)[C@H](c2cccnc2)O1 [Example 202] | > 1 µM |
| C[C@]1(c2cccc(C#Cc3ccccc3)n2)NC(=O)O[C@@H]1c1ccccc1F (single isomer, unassigned) [Example 378] | < 0.1 µM |
| O=C1N[C@H](c2cncc(C#Cc3cccc(Cl)c3)c2)[C@@H](c2c(F)cccc2F)O1 [Example 281] | > 1 µM |
| Cn1nnc([C@H]2OC(=O)N[C@@H]2c2cccc(C#Cc3ccccc3)c2)n1 [Example 169, (4R,5S)-5-(2-Methyl-2H-tetrazol-5-yl)-4-(3-(phenylethynyl)phenyl)oxazolidin-2-one] | > 1 µM |
| COc1cccc([C@H]2OC(=O)N[C@@H]2c2cccc(C#Cc3ccc(F)cn3)c2)c1 [Example 195] | > 1 µM |
| COc1cccc([C@H]2OC(=O)N[C@@H]2c2cccc(C#Cc3cncc(Cl)c3)c2)c1 [Example 50, (4R,5R)-4-(3-((5-Chloropyridin-3-yl)ethnyl)phenyl)-5-(3-methoxyphenyl)oxazolidin-2-one] | 0.1 to 1 µM and 0.353 µM |
| O=C1N[C@@H](c2cccc(C#Cc3ccccc3)n2)[C@H](c2cccc(F)c2)O1 [Example 218] | > 1 µM |
| O=C1N[C@H](c2cc(C#Cc3ncccc3F)cnc2F)[C@@H](c2cccc(F)c2)O1 [Example 147, (4R,5R)-4-(2-Fluoro-5-((3-fluoropyridin-2-yl)ethynyl)pyridin-3-yl)-5-(3-fluorophenyl)oxazolidin-2-one] | > 1 µM |
| O=C1N[C@H](c2cc(C#Cc3cncc(F)c3)cnc2F)[C@@H](c2cccc(F)c2)O1 [Example 140, (4R,5R)-4-(2-Fluoro-5-((5-fluoropyridin-3-yl)ethynyl)pyridin-3-yl)-5-(3-fluorophenyl)oxazolidin-2-one] | < 0.1 µM |
| O=C1N[C@H](c2cc(C#Cc3ccc(F)cc3)ccn2)[C@@H](c2ccc(F)cc2)O1 (single isomer, unassigned) [Example 357] | < 0.1 µM |
| O=C1N[C@H](c2cncc(C#Cc3cccc(C(F)(F)F)c3)c2)[C@@H](c2cc(F)ccc2F)O1 [Example 386, (4R,5R)-5-(2,5-difluorophenyl)-4-(5-((3-(trifluoromethyl)phenyl)ethynyl)pyridin-3-yl)oxazolidin-2-one] | > 1 µM |
| O=C1N[C@@H](c2cccc(C#Cc3ccccc3)c2)[C@H](c2ccccc2F)O1 [Example 110, (4S,5S)-5-(2-fluorophenyl)-4-(3-(phenylethynyl)phenyl)oxazolidin-2-one] | > 1 µM |
| C[C@@]1(c2cccc(C#Cc3ccccc3)n2)NC(=O)O[C@@H]1c1ccccc1F (single isomer, unassigned) [Example 376] | 0.1 to 1 µM |
| O=C1N[C@H](c2cncc(C#Cc3ccccc3)c2)[C@@H](c2ccc(F)c(F)c2)O1 [Example 172] | < 0.1 µM |
| O=C1N[C@H](c2cncc(C#Cc3cccnc3)c2)[C@@H](c2ccc(F)cc2)O1 (single isomer, unassigned) [Example 43] | < 0.1 µM |
| C[C@@]1(c2cc(F)ccc2F)OC(=O)N[C@@H]1c1cncc(C#Cc2ccccc2)c1 [Example 290] | > 1 µM |
| COc1cccc([C@H]2OC(=O)N[C@@H]2c2cccc(C#Cc3ccc(C(C)=O)cc3)c2)c1 [Example 261] | > 1 µM |
| O=C1N[C@H](c2cncc(C#Cc3ccccn3)c2)[C@@H](c2ccc(F)cc2F)O1 [Example 183] | < 0.1 µM |
| O=C1N[C@@H](c2cccc(C#Cc3ccccc3)c2)[C@H](c2nc(-c3cccnc3)no2)O1 [Example 165] | > 1 µM |
| O=C1N[C@H](c2cc(C#Cc3ccc(Cl)cc3)ccn2)[C@@H](c2ccc(F)cc2)O1 (single isomer, unassigned) [Example 349] | 0.1 to 1 µM and 0.305 µM |
| O=C1N[C@@H](c2cccc(C#Cc3ccccc3)c2)[C@H](c2ccncn2)O1 [Example 238] | > 1 µM |
| O=C1N[C@H](c2cncc(C#Cc3cncc(F)c3)c2)[C@@H](c2cccnc2)O1 [Example 201] | 0.1 to 1 µM |
| N#Cc1cccc(C#Cc2cncc([C@H]3NC(=O)O[C@@H]3c3cc(F)ccc3F)c2)c1 [Example 188] | > 1 µM |
| C[C@]1(c2cc(F)ccc2F)OC(=O)N[C@@H]1c1cncc(C#Cc2ccccc2)c1 [Example 289] | < 0.1 µM |
